Columns and labels:
Assay type in all cases: in vivo, human
[1] = system: patients with stable coronary artery disease; assay: Applanation tonometry-derived augmentation index (AIx); settings: for AIx, absolute value: mean ± SD; for AIx, adjusted mean difference serelaxin versus placebo / AIx, change from baseline (adjusted mean): repeated measures ANCOVA
Experimental: (30 μg/kg/day) or matching placebo, using a computerized randomization system involving concealed treatment arms. The co-primary endpoints were the change from baseline in global myocardial perfusion reserve (MPR) measured by quantitative perfusion cardiac magnetic resonance (CMR) imaging and the change from baseline in augmentation index (AIx) measured by applanation tonometry. The primary endpoints of MPR and AIx were assessed at baseline and 47 h post-commencement of the infusion (Figure 1).
The applanation tonometry assessments were performed by blinded operators. Augmentation index [AIx = (augmentation pressure/pulse pressure) × 100], and carotid-femoral PWV were measured by applanation tonometry (Sphygmocor®, AtCor Medical, Australia) at a proximal (carotid artery) and a distal (femoral artery) site of the body, utilizing R-wave gated determination of the time interval between the two measurement points. An averaged carotid pressure waveform (from a 10 s recording) was converted into a corresponding central waveform using a validated transfer function (SphygmoCor®, AtCor, Australia).[27]^,[28]

NT-proBNP = assay: Plasma biomarker NT-proBNP; settings: for NT-proBNP, geo-mean (95% CI): plasma
Experimental: (§1) Biomarkers reported include: N-terminal pro-brain natriuretic peptide (NT-proBNP), high-sensitivity troponin T (hsTnT) measured to assess myocardial safety; cystatin C measured to access renal function; the biologically active form of endothelin-1 (1–21), measured to assess vascular function. Venous blood samples were collected at 0 (pre-dose), 24, 48, and 54 h, Day 30, and Day 180. NT-proBNP, hsTnT, and cystatin C samples were collected in EDTA tubes while endothelin-1 samples were collected in EDTA tubes containing aprotinin. Plasma was immediately frozen at −70°C pending analysis in complete patient sets. Commercial biomarker kits were as follows: hsTnT from Roche Diagnostics GmbH, Germany; cystatin C from Gentian, Moss, Norway; and active endothelin-1 […] from Biomedica Medizinprodukte, Vienna, Austria.
(§2) For the biomarker analyses, baseline was defined as the pre-dose assessment on Day 1. Raw values as well as changes from baseline were summarized by treatment and time. Descriptive statistics included geometric mean and 95% CI. For geometric means of change from baseline, a ratio to baseline was used to determine percentage change by first calculating in the log domain and then back transforming using exponentiation.
(§3) Baseline corresponds to the value at day 1 pre-dose. For change from baseline, geometric mean and its CI are calculated for the value (post) to baseline ratio.

hsTnT = assay: Plasma biomarker high-sensitivity troponin T; design: hs Troponin-T, geo-mean (95% CI): unit not given here
Experimental: as §1, §2, §3

endothelin-1 = assay: Plasma biomarker endothelin-1; settings: for Endothelin-1, geo-mean (95% CI): plasma
Experimental: as §1, §2, §3

[2] = Serum serelaxin pharmacokinetics (ELISA, non-compartmental)
Experimental: Blood samples (approximately 2 mL) for pharmacokinetic (PK) evaluation were collected at 0 (pre-dose), 24, 48, 50, and 54 h, and Day 30. Serum serelaxin concentration was determined by an enzyme-linked immunosorbent assay, developed and validated based upon a commercially available kit (Quantikine ELISA kit, R&D systems, MN, USA).[29] The PK parameters were calculated using non-compartmental methods that included steady-state concentration (Css) and systemic clearance (CL). Css was estimated using the serum concentration determined at 48 h, while CL was estimated using the rate of infusion and Css for each patient.

Substance: Serelaxin
- AIx, absolute value ([1]; 0 h (pre-dose baseline), n=25): 25.81 ± 7.70 (25) %
- AIx, adjusted mean difference serelaxin versus placebo ([1]; 2 h): -2.12%
- AIx, change from baseline (adjusted mean) ([1]; 2 h, n=23): -4.09%
- AIx, absolute value ([1]; 2 h post-dose, n=23): 22.17 ± 10.09 (23) %
- AIx, adjusted mean difference serelaxin versus placebo ([1]; 6 h): -2.88%
- AIx, change from baseline (adjusted mean) ([1]; 6 h, n=24): -3.28%
- AIx, absolute value ([1]; 6 h post-dose, n=24): 22.96 ± 6.95 (24) %
- AIx, adjusted mean difference serelaxin versus placebo ([1]; 24 h): –0.84%
- AIx, change from baseline (adjusted mean) ([1]; 24 h, n=24): -0.77%
- AIx, absolute value ([1]; 24 h post-dose, n=24): 25.08 ± 8.10 (24) %
- AIx, adjusted mean difference serelaxin versus placebo ([1]; 47 h): 3.45%
- AIx, change from baseline (adjusted mean) ([1]; 47 h, n=23): 3.49%
- AIx, absolute value ([1]; 47 h post-dose, n=23): 29.57 ± 9.75 (23) %
- AIx, adjusted mean difference serelaxin versus placebo ([1]; 50 h): 3.25%
- AIx, change from baseline (adjusted mean) ([1]; 50 h, n=22): -0.76%
- AIx, absolute value ([1]; 50 h post-dose, n=22): 24.89 ± 12.50 (22) %
- AIx, adjusted mean difference serelaxin versus placebo ([1]; 54 h): -0.98%
- AIx, change from baseline (adjusted mean) ([1]; 54 h, n=22): -1.74%
- AIx, absolute value ([1]; 54 h post-dose, n=22): 24.70 ± 10.62 (22) %
- AIx, absolute value ([1]; Day 30, n=25): 24.98 ± 9.05 (25) %
- AIx, adjusted mean difference serelaxin versus placebo ([1]; Day 30): -1.76%
- AIx, change from baseline (adjusted mean) ([1]; Day 30, n=25): -0.98%
- AIx, absolute value ([1]; Day 180, n=24): 26.15 ± 8.97 (24) %
- AIx, adjusted mean difference serelaxin versus placebo ([1]; Day 180): -0.05%
- AIx, adjusted mean difference serelaxin versus placebo ([1]; Day 180, listed as serelaxin): −0.05%
- AIx, change from baseline (adjusted mean) ([1]; Day 180, n=24): 0.23%
- NT-proBNP change from baseline, geometric mean ratio to baseline (95% CI) (NT-proBNP; 24 h, n=27): 0.89 (0.77, 1.02)
- NT-proBNP change from baseline, geometric mean ratio to baseline (95% CI) (NT-proBNP; 48 h, n=28): 1.03 (0.79, 1.34)
- NT-proBNP change from baseline, geometric mean ratio to baseline (95% CI) (NT-proBNP; 54 h, n=27): 1.36 (1.06, 1.75)
- NT-proBNP change from baseline, geometric mean ratio to baseline (95% CI) (NT-proBNP; Day 30, n=29): 1.02 (0.80, 1.29)
- NT-proBNP change from baseline, geometric mean ratio to baseline (95% CI) (NT-proBNP; Day 180, n=29): 1.17 (0.86, 1.58)
- NT-proBNP, geo-mean (95% CI) (NT-proBNP; 0 h (pre-dose baseline), n=29): 87.0 (60.2, 125.8) pg/mL
- NT-proBNP, geo-mean (95% CI) (NT-proBNP; 24 h, n=27): 74.7 (51.9, 107.5) pg/mL
- NT-proBNP, geo-mean (95% CI) (NT-proBNP; 48 h, n=28): 86.8 (57.7, 130.5) pg/mL
- NT-proBNP, geo-mean (95% CI) (NT-proBNP; 54 h, n=27): 117.1 (79.9, 171.7) pg/mL
- NT-proBNP, geo-mean (95% CI) (NT-proBNP; Day 30, n=29): 88.4 (60.3, 129.7) pg/mL
- NT-proBNP, geo-mean (95% CI) (NT-proBNP; Day 180, n=29): 101.6 (69.9, 147.8) pg/mL
- hs Troponin-T change from baseline, geometric mean ratio to baseline (95% CI) (hsTnT; 24 h, n=27): 0.90 (0.80, 1.01)
- hs Troponin-T change from baseline, geometric mean ratio to baseline (95% CI) (hsTnT; 48 h, n=28): 0.87 (0.79, 0.95)
- hs Troponin-T change from baseline, geometric mean ratio to baseline (95% CI) (hsTnT; 54 h, n=27): 1.02 (0.85, 1.24)
- hs Troponin-T change from baseline, geometric mean ratio to baseline (95% CI) (hsTnT; Day 30, n=29): 0.89 (0.78, 1.02)
- hs Troponin-T change from baseline, geometric mean ratio to baseline (95% CI) (hsTnT; Day 180, n=29): 1.09 (0.91, 1.31)
- hs Troponin-T, geo-mean (95% CI) (hsTnT; plasma, 0 h (pre-dose baseline), n=29): 0.0076 (0.0057, 0.0102)
- hs Troponin-T, geo-mean (95% CI) (hsTnT; plasma, 24 h, n=27): 0.0064 (0.0049, 0.0084)
- hs Troponin-T, geo-mean (95% CI) (hsTnT; plasma, 48 h, n=28): 0.0066 (0.0049, 0.0089)
- hs Troponin-T, geo-mean (95% CI) (hsTnT; plasma, 54 h, n=27): 0.0079 (0.0057, 0.0110)
- hs Troponin-T, geo-mean (95% CI) (hsTnT; plasma, Day 30, n=29): 0.0068 (0.0053, 0.0088)
- hs Troponin-T, geo-mean (95% CI) (hsTnT; plasma, Day 180, n=29): 0.0083 (0.0066, 0.0105)
- hsTnT geometric mean at baseline (hsTnT; plasma, pre-dose baseline, serelaxin group): 7.6 ng/L
- Endothelin-1 change from baseline, geometric mean ratio to baseline (95% CI) (endothelin-1; 24 h, n=27): 0.82 (0.68, 0.99)
- Endothelin-1 change from baseline, geometric mean ratio to baseline (95% CI) (endothelin-1; 48 h, n=28): 0.82 (0.70, 0.96)
- Endothelin-1 change from baseline, geometric mean ratio to baseline (95% CI) (endothelin-1; 48 h, n=28, listed as serelaxin): 0.82
- Endothelin-1 change from baseline, geometric mean ratio to baseline (95% CI) (endothelin-1; 54 h, n=26): 0.84 (0.73, 0.96)
- Endothelin-1 change from baseline, geometric mean ratio to baseline (95% CI) (endothelin-1; Day 30, n=29): 0.93 (0.77, 1.13)
- Endothelin-1 change from baseline, geometric mean ratio to baseline (95% CI) (endothelin-1; Day 180, n=29): 0.88 (0.69, 1.12)
- Endothelin-1, geo-mean (95% CI) (endothelin-1; 0 h (pre-dose baseline), n=29): 0.874 (0.630, 1.212) pmol/L
- Endothelin-1, geo-mean (95% CI) (endothelin-1; 24 h, n=27): 0.6732 (0.4626, 0.9796) pmol/L
- Endothelin-1, geo-mean (95% CI) (endothelin-1; 48 h, n=28): 0.6835 (0.4647, 1.0054) pmol/L
- Endothelin-1, geo-mean (95% CI) (endothelin-1; 54 h, n=26): 0.7535 (0.5098, 1.1138) pmol/L
- Endothelin-1, geo-mean (95% CI) (endothelin-1; Day 30, n=29): 0.8145 (0.5881, 1.1279) pmol/L
- Endothelin-1, geo-mean (95% CI) (endothelin-1; Day 180, n=29): 0.7664 (0.5436, 1.0806) pmol/L
- Systemic clearance (CL), geometric mean ([2]; estimated from rate of infusion and Css, 48 h IV infusion 30 µg/kg/day): 1.38 mL/min/kg
- Steady-state serum concentration (Css), geometric mean ([2]; serum concentration at 48 h of 48 h IV infusion 30 µg/kg/day, ELISA, non-compartmental): 15.1 ng/mL

Source: publication PMC7797213, “Vascular effects of serelaxin in patients with stable coronary artery disease: a randomized placebo-controlled trial” (Cardiovascular Research, 2020)
